Results published in patent publication US10610602B2, “Tumor cell-specific responsive self-assembling drug nanoconjugate” (KOREA INSTITUTE OF SCIENCE AND TECHNOLOGY, priority 2017, dated 2020).
“Also recorded” adds a separate entry of the source. Read-outs that look alike come from different tables or passages of the source. Residues, ends and D or L forms follow the SMILES beside them. No end group written: not given here. *: point of attachment. Doxorubicin(3'-N) = COc1cccc2c1C(=O)c1c(O)c3c(c(O)c1C2=O)C[C@@](O)(C(=O)CO)C[C@@H]3O[C@H]1C[C@H](N*)[C@H](O)[C@H](C)O1

Assays:
[1] = Non-enzymatic hydrolysis in PBS buffer only, HPLC; assay type: physicochemical; settings: 37° C., 9 h
Experimental: The drug conjugate of Example 1 was allowed to react with other enzymes (10 μg/ml cathepsins D, E, and L) and PBS buffer only (in this case, a non-enzymatic hydrolysis product was obtained) and the reaction products were analyzed by HPLC at 37° C. for 9 h.

[2] = test system: H9C2 cells (normal cells); assay type: cell-based, Rattus
Experimental: (§1) First, HT-29 cells were plated in a 96-well plate at a density of 1×10^4 cells/well. […] Then, […] of CCK solution was added to each well. After further culture for 30 min, the absorbance of each 96-well plate at 450 nm was analyzed using a microplate reader (VERSAmax™, Molecular Devices Corp., Sunnyvale, Calif.). For comparison, the cell viabilities (%) of H9C2 cells (normal cells) were measured in the same manner as described above.

[3] = test system: HT29 tumor; test: Doxorubicin accumulation in tumor tissues after intravenous administration, near-infrared fluorescence
Experimental: (§2) In this example, the in vivo anticancer effects of doxorubicin (Free DOX) and FRRG-DOX (SEQ ID NO: 7) of Example 1 were investigated. First, 1×10^7 HT-29 cells were directly injected into the right flank of each tumor animal model constructed in 1) (n=4 per group). When the tumor size reached ˜250-300 mm3, doxorubicin (Free DOX, 5 mg/kg) and FRRG DOX (SEQ ID NO: 7) of Example 1 (5 mg/kg) were administered intravenously once every three days for 15 days.
(§3) The therapeutic efficacies of Free DOX, FRRG-DOX (SEQ ID NO: 7), and the control were compared by measuring the tumor volumes (maximum diameter×minimum diameter 2×0.53) for 15 days. The viabilities and weights of the tumor animal models were measured once a day for 15 days. The accumulations of Free DOX and FRRG-DOX (SEQ ID NO: 7) in the tumor tissues of the tumor animal models were monitored using IVIS Lumina Series III (PerkinElmer, Massachusetts, USA). The fluorescence intensities of Free DOX and FRRG-DOX (SEQ ID NO: 7) in the tumor tissues were quantified using the Living Image software (PerkinElmer, Massachusetts, USA).

[4] = test system: HT29 tumor; settings: for viability (survival rate) of animal tumor models: for 16 days, FIG. 4C; for apoptosis in organ tissues (annexin V staining): heart, spleen, tumor tissues, FIG. 4D
Experimental: as §2, with “˜200 mm^3,” for “˜250-300 mm3,”, “by tail vein injection” for “intravenously”
as §3
Annexin V staining was performed to confirm that apoptosis occurred in tumor tissues excised from the tumor animal models. First, section slides (10 μm) of the excised tumor tissues were washed three times with DPBS, incubated with annexin V solution (200 μl of a binding buffer containing 5 μl of annexin V-Cy5.5) at 37° C. for 20 min, incubated with DAPI at room temperature for 15 min, placed on cover glass, and observed under a confocal laser microscope.

[5] = test system: hiPSC-CMs; test: Multi-electrode array (MEA) analysis; assay type: cell-based, human; settings: FRRG-DOX 0.2 μM; doxorubicin 0.1 μM; compared to the baseline
Experimental: Multi-electrode array analysis was conducted by the following procedure. First, human induced pluripotent stem cell-derived cardiomyocytes (hiPSC-CMs, Cellular Dynamics International [CDI], Madison, Wis., USA) were thawed in a 100 mm culture dish. After 1 week, the thawed hiPSC-CMs were plated in an MEA plate coated with fibronectin solution (50 μg/ml). On day 2 after thawing, the plating medium was replaced with a maintenance medium (CDI). Maintenance media were replaced with new ones every 2-3 days. Only 50% of the culture media were replaced with new ones. 2 weeks after plating in the plate, field potentials of spontaneously beating cardiomyocytes were recorded using a Maestro system (Axion Biosystems Inc., Atlanta, Ga., USA). The waveforms of the extracellular field potentials were recorded 10 min after the equilibration period. Inter-spike interval and extracellular field potential duration (FPD) were analyzed and quantified. To minimize the influence of the beat rate on FPD, corrected FPD (FPDcF) was calculated using Fridericia's formula 1: FPDcF=FPD/[inter−spike interval]1/3 (1)

[6] = rat, in vivo
[7] = Electrocardiography (ECG) analysis; assay type: in vivo, ICR mice; settings: intravenous; 5 mg/kg doxorubicin or 10 mg/kg FRRG-doxorubicin; versus control
Experimental: ECG analysis was performed under the approval of the Institutional Animal Care and Use Committee at the Korea Institute of Toxicology. All procedures were performed according to the National Institutes of Health guidelines for the care and use of laboratory animals. A mixture of isoflourane and oxygen as an anaesthetic gas was injected at a rate of 2 cc/min to ICR mice (25-35 g, Orient Bio Inc., Seoul, Korea). ECG was measured before injection of the anaesthetic gas into an animal bio amp (ADinstruments Pty Ltd, Bella Vista, Australia). The measured ECG was defined as baseline. For 6 h after injection of the anaesthetic gas, ECG was measured. All mice were injected intravenously with saline, 5 mg/kg doxorubicin (in saline) or 10 mg/kg FRRG-doxorubicin (SEQ ID NO: 7) (Example 1) (in saline). The measured ECG data were analyzed using the LabChart 8 software (ADinstruments Pty Ltd, Bella Vista, Australia). Corrected QT (QTc) was calculated using Van de Water's formula 2 and Bazett's formula 3: QTc−V=0.087[(60/HR)−1] (2) QTc−B=QT/(RR)1/2 (3)

[8] = Heart damage markers in blood samples; settings: versus control (saline), FIG. 4E
[9] = Nanoparticle size by dynamic light scattering; assay type: physicochemical; settings: FIG. 5B
Experimental: The size distribution was measured using Zetasizer Nano ZS (Malvern Instruments, Worcestershire, U.K).

[10] = test system: cells; test: Cellular and nuclear uptake of drug conjugates of Examples 2-4, confocal microscopy; assay type: cell-based; settings: for absorption into cells / antitumor effects or intracellular uptake effects: FIGS. 5C and 5D
Text: In FIG. 5D, “Cytosol “and “Nucleus” indicate the fluorescence intensities of DOX measured in cytosol and cell nuclei, respectively.

[11] = test system: HT-29 cells; test: In vitro cell viability (CCK); assay type: cell-based, human; settings: HT29, FIG. 5E
Experimental: as §1

[12] = 5 mg/kg tail vein once every three days for 15 days
[13] = intravenous, DAPI-stained tissue sections, FIG. 3G

Compound	toxicity to normal cells in tumor animal models [4, 12]	viability (survival rate) of animal tumor models [4]	apoptosis in organ tissues (annexin V staining) [4]	FPD [5]	FPDcF [5]	doxorubicin accumulation in tumor tissues [3, 13]	measured sizes of the nanoparticles [9]	absorption into cells [10]	antitumor effects or intracellular uptake effects [10]	also measured
COc1cccc2c1C(=O)c1c(O)c3c(c(O)c1C2=O)C[C@@](O)(C(=O)CO)C[C@@H]3O[C@H]1C[C@H](NC(=O)CNC(=O)[C@H](CCCNC(=N)N)NC(=O)[C@H](CCCNC(=N)N)NC(=O)[C@H](Cc2ccccc2)NC(C)=O)[C@H](O)[C@H](C)O1 [FRRG-DOX] (Ac-FRRG-{Doxorubicin(3'-N)})	no toxicity was observed	100%	apoptosis was observed only in the tumor tissues	remained substantially unchanged	remained substantially unchanged	–	–	–	–	stability in phosphate buffered saline [1]: very stable in phosphate buffered saline; cell viability compared with group treated with doxorubicin alone (Free DOX) [2]: significant difference in cell viability; doxorubicin accumulation in tumor tissues ([3]; mouse, in vivo, iv): doxorubicin was accumulated in the tumor tissues; levels of markers indicative of heart damage (hs troponin-T, Troponin-I, CK-MM, CPK total) [6]: about two times lower than or comparable to those in the control
COc1cccc2c1C(=O)c1c(O)c3c(c(O)c1C2=O)C[C@@](O)(C(=O)CO)C[C@@H]3O[C@H]1C[C@H](NC(=O)CNC(=O)[C@H](CCCNC(=N)N)NC(=O)[C@H](CCCNC(=N)N)NC(C)=O)[C@H](O)[C@H](C)O1 [RRG-DOX]	–	–	–	–	–	could not be effectively accumulated in tissues	–	–	–	fluorescence intensity of doxorubicin in excised tumor tissues ([3]; 5 mg/kg intravenous, FIG. 3E/3F): low fluorescence intensity
COc1cccc2c1C(=O)c1c(O)c3c(c(O)c1C2=O)C[C@@](O)(C(=O)CO)C[C@@H]3O[C@H]1C[C@H](N)[C@H](O)[C@H](C)O1 [doxorubicin]	Toxicity to normal cells was observed	mortality began to increase rapidly	apoptosis was observed in all of the heart, spleen, and tumor tissues	significantly low compared to the baseline	significantly low compared to the baseline	could not be effectively accumulated in tissues	–	–	–	weight of the tumor animal models ([4]; 5 mg/kg tail vein once every three days): began to decrease; inhibition of tumor growth (tumor volume) [4, 12]: significantly inhibit tumor growth; QTc values [7]: extended compared to those measured in the control; levels of markers indicative of heart damage (hs troponin-T, Troponin-I, CK-MM, CPK total) [8]: higher levels of all markers
FRRGGGGG-DOX (FRRGGGGG-doxorubicin)	–	–	–	–	–	–	300-700 nm	not readily absorbed into cells	showed antitumor effects or intracellular uptake effects	–
GGFRRGGG-DOX (GGFRRGGG-doxorubicin)	–	–	–	–	–	–	50-200 nm	readily absorbed into cells	showed antitumor effects or intracellular uptake effects	uptake into cell nuclei relative to drug conjugates of Examples 1 and 2 ([10]; FIG. 5D): 10 times lower
GGGGFRRG-DOX (GGGGFRRG-doxorubicin)	–	–	–	–	–	–	200-600 nm	–	showed antitumor effects or intracellular uptake effects	antitumor effect (cell viability of HT29) [11]: same antitumor effect as DOX; also recorded: most effective in antitumor action
